Patent US6551632B2, “Methods and compositions for treating inflammatory bowel disease” (priority 1997, dated 2003)

Tested on: Patients with Inflammatory Bowel Disease
Assay: Treatment of patients with inflammatory bowel disease using a combination of anti-atypical mycobacterial agents (Example 1)
Method: Fifteen patients, aged 13 to 58, were treated with various protocols of antimycobacterial agents. Twelve patients had Crohn's disease and three ulcerative colitis. Presence of Mycobacterium paratuberculosis was identified in nine of these patients. A combination of clarithromycin (250 mg to 1.5 grams per day), rifabutin (150 mg to 750 mg per day) and clofazimine (3 mg/kg to 10 mg/kg) was used.
After four months of treatment, five patients were examined colonoscopically.
In these three patients, a combination of clarithromycin and rifabutin (same dosages as above) together with added clofazimine, 2 mg per kg, made up a preferred therapy. […] No prednisone, azathioprine or 5ASA compounds were used. […] This dose was increased at one stage to 50 mg per kg in an attempt to reverse the inflammatory process and then reduced to 10 mg per kg. […] In yet a further patient four drugs were used simultaneously because of resistance to clarithromycin. Azithromycin, 500 mg each morning (range 250-1,500 mg) was used in combination with rifabutin, clofazimine, and ethambutol.

SMILES | sensitivity (adverse reaction) (one patient on the combination therapy) | clinical response after rifabutin was changed to ethambutol (one patient, ethambutol 400 mg twice daily, raised to 50 mg per kg, then 10 mg per kg, with clarithromycin and clofazimine)
CO[C@H]1/C=C/O[C@@]2(C)Oc3c(C)c(O)c4c(c3C2=O)C2=NC3(CCN(CC(C)C)CC3)NC2=C(NC(=O)/C(C)=C\C=C\[C@H](C)[C@H](O)[C@@H](C)[C@@H](O)[C@@H](C)[C@H](OC(C)=O)[C@@H]1C)C4=O [rifabutin] | marked headaches and fever | 
CC[C@@H](CO)NCCN[C@@H](CC)CO [ethambutol] |  | reversal of the inflammatory process with loss of diarrhoea, loss of bleeding, and ultimately loss of urgency
